Results taken from BigSolDB 2.1.

O=C1c2ccccc2-c2ccccc21
solubility (mole fraction) (in DMSO, 278.15 K): 0.0418
solubility (mole fraction) (in DMSO, 283.15 K): 0.0609
solubility (mole fraction) (in DMSO, 288.15 K): 0.0728
solubility (mole fraction) (in DMSO, 293.15 K): 0.0855
solubility (mole fraction) (in DMSO, 298.15 K): 0.112
solubility (mole fraction) (in DMSO, 303.15 K): 0.142
solubility (mole fraction) (in DMSO, 308.15 K): 0.178
solubility (mole fraction) (in DMSO, 313.15 K): 0.216
solubility (mole fraction) (in DMSO, 318.15 K): 0.306
solubility (mole fraction) (in acetonitrile, 278.15 K): 0.0209
solubility (mole fraction) (in acetonitrile, 283.15 K): 0.0311
solubility (mole fraction) (in acetonitrile, 288.15 K): 0.0481
solubility (mole fraction) (in acetonitrile, 293.15 K): 0.0657
solubility (mole fraction) (in acetonitrile, 298.15 K): 0.102
solubility (mole fraction) (in acetonitrile, 303.15 K): 0.134
solubility (mole fraction) (in acetonitrile, 308.15 K): 0.201
solubility (mole fraction) (in acetonitrile, 313.15 K): 0.281
solubility (mole fraction) (in acetonitrile, 318.15 K): 0.358
solubility (mole fraction) (in ethanol, 278.15 K): 0.0127
solubility (mole fraction) (in ethanol, 283.15 K): 0.014
solubility (mole fraction) (in ethanol, 288.15 K): 0.0164
solubility (mole fraction) (in ethanol, 293.15 K): 0.0222
solubility (mole fraction) (in ethanol, 298.15 K): 0.0267
solubility (mole fraction) (in ethanol, 303.15 K): 0.0307
solubility (mole fraction) (in ethanol, 308.15 K): 0.0428
solubility (mole fraction) (in ethanol, 313.15 K): 0.0506
solubility (mole fraction) (in ethanol, 318.15 K): 0.0693
solubility (mole fraction) (in ethyl acetate, 278.15 K): 0.105
solubility (mole fraction) (in ethyl acetate, 283.15 K): 0.137
solubility (mole fraction) (in ethyl acetate, 288.15 K): 0.142
solubility (mole fraction) (in ethyl acetate, 293.15 K): 0.172
solubility (mole fraction) (in ethyl acetate, 298.15 K): 0.225
solubility (mole fraction) (in ethyl acetate, 303.15 K): 0.243
solubility (mole fraction) (in ethyl acetate, 308.15 K): 0.284
solubility (mole fraction) (in ethyl acetate, 313.15 K): 0.35
solubility (mole fraction) (in ethyl acetate, 318.15 K): 0.371
solubility (mole fraction) (in ethyl formate, 278.15 K): 0.0907
solubility (mole fraction) (in ethyl formate, 283.15 K): 0.111
solubility (mole fraction) (in ethyl formate, 288.15 K): 0.14
solubility (mole fraction) (in ethyl formate, 293.15 K): 0.163
solubility (mole fraction) (in ethyl formate, 298.15 K): 0.22
solubility (mole fraction) (in ethyl formate, 303.15 K): 0.25
solubility (mole fraction) (in ethyl formate, 308.15 K): 0.32
solubility (mole fraction) (in ethyl formate, 313.15 K): 0.366
solubility (mole fraction) (in ethyl formate, 318.15 K): 0.409
solubility (mole fraction) (in isobutanol, 278.15 K): 0.0156
solubility (mole fraction) (in isobutanol, 283.15 K): 0.0207
solubility (mole fraction) (in isobutanol, 288.15 K): 0.0241
solubility (mole fraction) (in isobutanol, 293.15 K): 0.0305
solubility (mole fraction) (in isobutanol, 298.15 K): 0.0387
solubility (mole fraction) (in isobutanol, 303.15 K): 0.0504
solubility (mole fraction) (in isobutanol, 308.15 K): 0.0622
solubility (mole fraction) (in isobutanol, 313.15 K): 0.0745
solubility (mole fraction) (in isobutanol, 318.15 K): 0.0963
solubility (mole fraction) (in isopropanol, 278.15 K): 0.0087
solubility (mole fraction) (in isopropanol, 283.15 K): 0.0119
solubility (mole fraction) (in isopropanol, 288.15 K): 0.0152
solubility (mole fraction) (in isopropanol, 293.15 K): 0.0217
solubility (mole fraction) (in isopropanol, 298.15 K): 0.0273
solubility (mole fraction) (in isopropanol, 303.15 K): 0.0384
solubility (mole fraction) (in isopropanol, 308.15 K): 0.0472
solubility (mole fraction) (in isopropanol, 313.15 K): 0.0592
solubility (mole fraction) (in isopropanol, 318.15 K): 0.0801
solubility (mole fraction) (in methanol, 278.15 K): 0.0037
solubility (mole fraction) (in methanol, 283.15 K): 0.0044
solubility (mole fraction) (in methanol, 288.15 K): 0.0059
solubility (mole fraction) (in methanol, 293.15 K): 0.0084
solubility (mole fraction) (in methanol, 298.15 K): 0.012
solubility (mole fraction) (in methanol, 303.15 K): 0.0154
solubility (mole fraction) (in methanol, 308.15 K): 0.0199
solubility (mole fraction) (in methanol, 313.15 K): 0.0288
solubility (mole fraction) (in methanol, 318.15 K): 0.0401
solubility (mole fraction) (in n-butanol, 278.15 K): 0.0119
solubility (mole fraction) (in n-butanol, 283.15 K): 0.0142
solubility (mole fraction) (in n-butanol, 288.15 K): 0.0182
solubility (mole fraction) (in n-butanol, 293.15 K): 0.0286
solubility (mole fraction) (in n-butanol, 298.15 K): 0.0371
solubility (mole fraction) (in n-butanol, 303.15 K): 0.0461
solubility (mole fraction) (in n-butanol, 308.15 K): 0.0631
solubility (mole fraction) (in n-butanol, 313.15 K): 0.0826
solubility (mole fraction) (in n-butanol, 318.15 K): 0.113
solubility (mole fraction) (in n-hexane, 278.15 K): 0.0038
solubility (mole fraction) (in n-hexane, 283.15 K): 0.0047
solubility (mole fraction) (in n-hexane, 288.15 K): 0.0054
solubility (mole fraction) (in n-hexane, 293.15 K): 0.007
solubility (mole fraction) (in n-hexane, 298.15 K): 0.0097
solubility (mole fraction) (in n-hexane, 303.15 K): 0.0132
solubility (mole fraction) (in n-hexane, 308.15 K): 0.0169
solubility (mole fraction) (in n-hexane, 313.15 K): 0.0227
solubility (mole fraction) (in n-hexane, 318.15 K): 0.0304
solubility (mole fraction) (in n-propanol, 278.15 K): 0.0143
solubility (mole fraction) (in n-propanol, 283.15 K): 0.0169
solubility (mole fraction) (in n-propanol, 288.15 K): 0.0214
solubility (mole fraction) (in n-propanol, 293.15 K): 0.0294
solubility (mole fraction) (in n-propanol, 298.15 K): 0.0381
solubility (mole fraction) (in n-propanol, 303.15 K): 0.0482
solubility (mole fraction) (in n-propanol, 308.15 K): 0.0653
solubility (mole fraction) (in n-propanol, 313.15 K): 0.083
solubility (mole fraction) (in n-propanol, 318.15 K): 0.0997
